Results published in patent US20100298141A1, “SUBSTITUTED PYRIDINE N-OXIDE HERBICIDES” (E. I. DU PONT DE NEMOURS AND COMPANY, priority 2007, published 2010).

Tests used:
bermudagrass = experiment: Test C pre-/postemergence test; assay type: in vivo, Cynodon dactylon
Procedure, shortened: (§1)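 Seeds were planted and treated preemergence with test chemical in a non-phytotoxic solvent mixture containing surfactant. Postemergence applications of the same formulation went onto plants 2 to 18 cm tall (1- to 4-leaf stage). A dash marks no test result.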

redroot pigweed = experiment: Test A pre-/postemergence greenhouse test; assay type: in vivo, Amaranthus retroflexus; conditions: for Pigweed plant response rating: 0 to 100 scale
Procedure, shortened: (§2)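 Untreated controls served as the reference for visual injury ratings taken about ten days after spraying. The non-phytotoxic solvent/surfactant formulation was applied preemergence to seeded loam and sand and postemergence to plants two to ten cm high.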

morningglory [1] = experiment: Test A pre-/postemergence greenhouse test; assay type: in vivo, Ipomoea spp.; conditions: for Morningglory plant response rating: 0 to 100 scale
Procedure, shortened: as §2

corn [2] = experiment: Test A pre-/postemergence greenhouse test; assay type: in vivo, Zea mays; conditions: for Corn plant response rating: 0 to 100 scale
Procedure, shortened: as §2

johnsongrass = experiment: Test C pre-/postemergence test; assay type: in vivo, Sorghum halepense
Procedure, shortened: as §1

giant foxtail = experiment: Test C pre-/postemergence test; assay type: in vivo, Setaria faberii
Procedure, shortened: as §1

cocklebur = experiment: Test C pre-/postemergence test; assay type: in vivo, Xanthium strumarium
Procedure, shortened: as §1

wild oat = experiment: Test C pre-/postemergence test; assay type: in vivo, Avena fatua
Procedure, shortened: as §1

kochia = experiment: Test C pre-/postemergence test; assay type: in vivo, Kochia scoparia
Procedure, shortened: as §1

rice = experiment: Test C flooded paddy test; assay type: in vivo, Oryza sativa; conditions: Flood
Procedure, shortened: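 Under a constant 3 cm flood, test compounds went directly into the paddy water. Following 13 to 15 days of greenhouse growth, treated species and controls were compared by eye.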

eastern black nightshade = experiment: Test C pre-/postemergence test; assay type: in vivo, Solanum ptycanthum
Procedure, shortened: as §1

Italian ryegrass = experiment: Test C pre-/postemergence test; assay type: in vivo, Lolium multiflorum
Procedure, shortened: as §1

morningglory [3] = experiment: Test C pre-/postemergence test; assay type: in vivo, Ipomoea coccinea
Procedure, shortened: as §1

wheat = experiment: Test C pre-/postemergence test; assay type: in vivo, Triticum aestivum
Procedure, shortened: as §1

[4] = system: common (oilseed) sunflower; experiment: Test C pre-/postemergence test; assay type: in vivo, Helianthus annuus
Procedure, shortened: as §1

corn [5] = experiment: Test C pre-/postemergence test; assay type: in vivo, Zea mays
Procedure, shortened: as §1

yellow nutsedge = experiment: Test C pre-/postemergence test; assay type: in vivo, Cyperus esculentus
Procedure, shortened: as §1

[6] = 125 g ai/ha, preemergence, scale 0 (no effect) to 100 (complete control)
[7] = Preemergence, 31 g ai/ha, scale 0 to 100 (0 no effect, 100 complete control)
[8] = preemergence, 250 g ai/ha, scale 0 (no effect) to 100 (complete control)
[9] = Postemergence, 125 g ai/ha, 0 is no effect, 100 is complete control
[10] = Postemergence, 500 g ai/ha, 0 is no effect, 100 is complete control
[11] = Preemergence, 125 g ai/ha, 0 no effect, 100 complete control
[12] = Preemergence, 500 g ai/ha, 0 to 100 scale where 0 is no effect and 100 is complete control
[13] = 62 g ai/ha, Preemergence, scale 0 to 100

Cn1nc(C(F)(F)F)c(C[S+]([O-])c2cc(F)cc[n+]2[O-])c1Cl (racemic) [Compound 42]
85: Ryegrass, Italian plant response rating (Italian ryegrass; [8]) | Nutsedge, Yellow plant response rating (yellow nutsedge; [6])
55: Plant response rating, Johnsongrass (johnsongrass; [7]) | Ryegrass, Italian plant response rating (Italian ryegrass; [13])
95: Nutsedge, Yellow plant response rating (yellow nutsedge; [8])
100: Bermudagrass plant response rating (bermudagrass; 62 g ai/ha, Preemergence, scale 0 to 100 (0 no effect, 100 complete control)) | Bermudagrass plant response rating (bermudagrass; [6]) | Bermudagrass plant response rating (bermudagrass; [8]) | Pigweed plant response rating (redroot pigweed; [11]) | Plant response rating, Pigweed (redroot pigweed; [12]) | Johnsongrass plant response rating (johnsongrass; [6]) | Johnsongrass plant response rating (johnsongrass; [8]) | Foxtail, Giant plant response rating (giant foxtail; [13]) | Foxtail, Giant plant response rating (giant foxtail; [6]) | Foxtail, Giant plant response rating (giant foxtail; [8]) | Kochia plant response rating (kochia; [13]) | Kochia plant response rating (kochia; [6]) | Plant response rating, Kochia (kochia; [7]) | Kochia plant response rating (kochia; [8]) | Nightshade plant response rating (eastern black nightshade; [6]) | Nightshade plant response rating (eastern black nightshade; [8])
0: Corn plant response rating (corn [2]; [9]) | Corn plant response rating (corn [2]; [11]) | Plant response rating, Corn (corn [2]; [12]) | Cocklebur plant response rating (cocklebur; [13]) | Cocklebur plant response rating (cocklebur; [6]) | Plant response rating, Cocklebur (cocklebur; [7]) | Plant response rating, Oat, Wild (wild oat; [7]) | Plant response rating, Rice (rice; 31 g ai/ha, scale 0 to 100 (0 no effect, 100 complete control)) | Plant response rating, Morningglory (morningglory [3]; [7]) | Wheat plant response rating (wheat; [13]) | Plant response rating, Wheat (wheat; [7]) | Sunflower plant response rating [4, 13] | Plant response rating, Sunflower [4, 7] | Plant response rating, Corn (corn [5]; [7]) | Plant response rating, Nutsedge, Yellow (yellow nutsedge; [7])
80: Nightshade plant response rating (eastern black nightshade; [13]) | Plant response rating, Nightshade (eastern black nightshade; [7]) | Ryegrass, Italian plant response rating (Italian ryegrass; [6]) | Sunflower plant response rating [4, 8] | Corn plant response rating (corn [5]; [8])
5: Oat, Wild plant response rating (wild oat; [13])
90: Morningglory plant response rating (morningglory [1]; [10]) | Plant response rating, Morningglory (morningglory [1]; [12]) | Oat, Wild plant response rating (wild oat; [8]) | Morningglory plant response rating (morningglory [3]; [8])
15: Plant response rating, Rice (rice; 62 g ai/ha, scale 0 to 100, 0 no effect, 100 complete control, 13 to 15 days)
60: Pigweed plant response rating (redroot pigweed; [9]) | Corn plant response rating (corn [5]; [6]) | Nutsedge, Yellow plant response rating (yellow nutsedge; [13])
98: Johnsongrass plant response rating (johnsongrass; [13]) | Plant response rating, Foxtail, Giant (giant foxtail; [7])
25: Plant response rating, Rice (rice; 125 g ai/ha, scale 0 to 100, 0 no effect, 100 complete control, 13 to 15 days) | Corn plant response rating (corn [5]; [13])
10: Wheat plant response rating (wheat; [6])
40: Morningglory plant response rating (morningglory [1]; [9])
50: Cocklebur plant response rating (cocklebur; [8]) | Oat, Wild plant response rating (wild oat; [6]) | Morningglory plant response rating (morningglory [3]; [13]) | Morningglory plant response rating (morningglory [3]; [6])
70: Plant response rating, Bermudagrass (bermudagrass; [7]) | Pigweed plant response rating (redroot pigweed; [10]) | Corn plant response rating (corn [2]; [10]) | Plant response rating, Rice (rice; 250 g ai/ha, scale 0 to 100, 0 no effect, 100 complete control, 13 to 15 days) | Wheat plant response rating (wheat; [8])
30: Morningglory plant response rating (morningglory [1]; [11]) | Sunflower plant response rating [4, 6]
